The results in this text go back to US10463709B2, “Short synthetic peptide for treating diseases and/or conditions related to angiogenesis” (MacKay Memorial Hospital, priority 2015, dated 2019).

“Also recorded” adds a separate entry of the source. Ends that are not written are not given here.

Assay [1] has as its system RPMI8226 cells. As to the kind of experiment: MTT assay, VEGF-induced proliferation of RPMI8226 cells. It is filed as cell-based. In short, it runs like this: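 After 24 h serum starvation, cells seeded at 3×10^5/well and cultured 24 h in serum-free RPMI1640 with 25 μM peptide, VEGF serving as proliferation stimulus. Viability by MTT (4 h, 37° C), DMSO solubilisation 20 min, absorbance at 570 nm.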
A general note: Tetrazolium assays rely on reduction of a dye to a coloured formazan, in cell work by metabolically active cells.

Assay [2] deals with STZ-induced diabetic mice. The experiment in a line: Vascular abnormalities in the retina of diabetic mice. Format: in vivo. In outline:
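Diabetes induced by single i.p. STZ 150 mg/kg; mice with non-fasting glucose >500 mg/dl after 1 week used. Peptide 10 mg/kg or DMSO vehicle i.p. twice daily for 24 h, then BSA-FITC 100 mg/kg i.p. for 30 min; retinal lesions counted on flat mounts (average lesions/retina), FITC-BSA leakage by fluorometry (ex 488/em 535 nm) normalized to non-injected control retina.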

Assay [3] concerns B16-F10 melanoma cells. The experiment in a line: Experimental pulmonary metastasis in mice. Format: in vivo, C57BL/6 mice. In short, it runs like this:
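Female C57BL/6 mice (6 weeks) received 2×10^5 B16-F10 cells i.v. via tail vein. Peptide, control peptide (10 mg/kg) or DMSO vehicle given i.p. every 2 days, 5 mice per group. Visible surface lung colonies counted under a dissecting microscope on day 8.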

Assay [4] concerns HUVECs. The experiment in a line: VEGF-induced HUVEC proliferation assay. Format: cell-based. The following applies: VEGF (10 ng/mL) + 25 μM peptide; vs untreated HUVECs.
Assay [5] concerns human uterine sarcoma cells (MES-SA/Dx5). As to the kind of experiment: Tumorigenicity assay, xenografted human uterine sarcoma. Format: in vivo, nude mice. The conditions noted are these: 10 mg/kg intraperitoneal every 2 days for 10 days. The protocol: MES-SA/Dx5 cells (5×10^6 cells in 0.1 ml) were implanted by subcutaneous injections in the right flank region of female nude mice (n=24, each animal weighted about 20 g before the assay began). The experiments were approved by the Mackay Memorial Hospital Review Board for animal investigation. Treatment was initiated in animals when the tumor volume was above 80 mm^3. Vehicle DMSO, the present synthetic peptide or the control peptide (10 mg/kg) was administered by intraperitoneal injections every 2 days. Tumor progression was monitored for 10 days; size of the tumor was measured every 3 to 5 days with a caliper and the volume was calculated using the following formula: ½×length×width^2.
To this purpose, human uterine sarcoma cells (MES-SA/Dx5) were implanted in nude mice to induce tumor formation, and when the volume of each tumor reached 80 mm^3, animals were then treated with vehicle alone, or the 7-mer peptide at the dose of 10 mg/kg, every 2 days for 10 days. Results are depicted in FIG. 9.
On the technique in general: A xenograft is tissue or cells of one species grown in another, often human tumour cells in immunodeficient mice.

In the case of “NH2-Asp-Leu-Tyr-Arg-Val-Arg-Ser-COOH (DLYRVRS; not fully specified (N-terminus, C-terminus); printed as NH2-Asp-Leu-Tyr-Arg-Val-Arg-Ser-COOH) [7-mer]”, the “dose dependence of inhibitory action on VEGF-induced cell proliferation” value in assay [1] (1 to 25 μM, RPMI8226 cells) is listed as “dose dependent manner”. For the same substance, the “effect on VEGF-induced proliferation of RPMI8226 cells” value in assay [1] (VEGF 50 ng/ml, 25 μM peptide, 24 hrs, MTT) is recorded as “suppressed”. The “extravasation of FITC-BSA” value in assay [2] was “may significantly prevent”. The “number of vascular lesions in retina” value in assay [2] (10 mg/kg intraperitoneal twice a day, 24 h) turned out to be 1.8±0.54. Also, in assay [2] (intraperitoneal), the “hemorrhage in the retinal parenchyma” value is reported as “successfully blocked”. Besides, the “Fluorescence Intensity (Fold)” value in assay [2] (leaked FITC-BSA in entire retina, vs vehicle) turned out to be 0.29 ± 0.076 Fold. Besides, in assay [3] (10 mg/Kg intraperitoneal every 2 days), the “effect on number of colonies on the surface of the lung / in vivo metastasis” value was “capable of reducing the number of colonies; also recorded: may suppress in vivo metastasis”. The substance further displayed a No. lung colonies in assay [3] (10 mg/Kg intraperitoneal every 2 days, day 8, n = 5) of 72 ± 16.0. The “Inhibition (%)” value in assay [3] (lung colonies vs vehicle, 10 mg/Kg) came to 67.9%. Moreover, the “Cell number (Fold)” value in assay [4] came to 0.95 ± 0.050 Fold. This substance registered a tumor volume in assay [5] of 125±15.4 mm^3.
